In brackets after ≈: the same amount, converted by molar mass. Read-outs that look alike come from different tables or passages of the source.
Experiments:
[1] = system: MCF7 (breast adenocarcinoma); experiment: Antiproliferative activity against MCF7 (XTT colorimetric method); format: cell-based; settings: Homo sapiens, 72 h treatment
Procedure: The in vitro antiproliferative activity of MDS at 1 µM after 72 h treatments was evaluated by a colorimetric method against the human tumor cell lines HeLa (cervix epithelioid carcinoma) and MCF7 (breast adenocarcinoma). Compounds showing more than 40% inhibition at 1 µM in at least three independent assays were evaluated in a range of concentrations between 0.1 nM and 10 µM for the determination of half-maximal inhibitory concentrations (IC50) (Table 1). Paclitaxel, CA-4, and ABT-751 were used as references.
(§1) MCF7 (human breast carcinoma), SKOV-3 (human ovarian carcinoma), OVCAR-3 (human ovarian carcinoma), OVCAR-8 (human ovarian carcinoma), and HeLa (human cervical carcinoma) cell lines were cultured in Dulbecco’s Modified Eagle’s Medium (DMEM) (Gibco, Thermo Fischer Scientific) containing 10% (v/v) heat-inactivated fetal bovine serum (HIFBS) (Lonza-Cambrex, Karlskoga, Sweden), 2 mM L-glutamine (Lonza-Cambrex, Karlskoga, Sweden), 100 μg/mL streptomycin, and 100 IU/mL penicillin (Lonza-Cambrex) at 37 °C in humidified 95% air and 5% CO2. HT-29 (human colon carcinoma), IGROV-1 (human ovarian carcinoma), and A2780 (human ovarian carcinoma) cell lines were cultured in RPMI 1640 medium (Gibco, Thermo Fischer Scientific) supplemented with 10% HIFBS, 100 μg/mL streptomycin, and 100 IU/mL penicillin at 37 °C in humidified 95% air and 5% CO2 atmosphere. The presence of mycoplasma was routinely checked with MycoAlert kit (Lonza-Cambrex) and only mycoplasma-free cells were used in the experiments. Ovarian tumor cell lines were originally acquired from Dr Atanasio Pandiella from Centro de Investigación del Cáncer (CIC), Salamanca, Spain. HeLa, HT-29 and MCF7 tumor cell lines were provided by Dr Faustino Mollinedo from Centro de Investigaciones Biológicas Margarita Salas, Madrid, Spain.
MCF7, HeLa, and HT-29 cell proliferation, when treated with the corresponding compounds, were determined using the XTT (sodium 3’-[1(phenylaminocarbonyl)-3,4-tetrazolium]-bis(4-methoxy-6-nitro)-benzenesulfonic acid hydrate) cell proliferation kit (Roche Molecular Biochemicals, Mannheim, Germany). A freshly prepared mixture of XTT labeling reagent with 0.02% (v/v) PMS (N-methyl-dibenzopyrazine methyl sulfate) electron coupling reagent was added to cells (50 µL/well in 96-well plates, total volume of 160 µL/well). Cells were incubated under standard culture conditions for 4 h (MCF7 and HeLa) or 6 h (HT-29). The absorbance of the formazan product generated was measured at 450 nm using a multi-well plate reader. SKOV-3, OVCAR-3, OVCAR-8, IGROV-1, A-2780 cell proliferation, when treated with the corresponding compound, were determined using MTT (3-(4,5-dimethylthiazol-2-yl)-2,5-diphenyl-2H-tetrazolium bromide) (Sigma-Aldrich, St. Louis, MO, USA). MTT in Phosphate Buffer Saline (PBS) (5 mg/ml) was added to cells (110 µL/well in 24-well plates, total volume of 1110 µL/well). After 1 hour of incubation, the medium was aspirated, and formazan violet crystals were dissolved in dimethyl sulfoxide (DMSO) (500 µL/well). Absorbance was measured at 570 nm in a plate reader (Ultra Evolution, Tecan, Männedorf, Suiza). To determine cell viability, cells in exponential growth phase were seeded (100 µL/well in 96-well plates and 1000 µL/well in 24-well plates) with appropriate cell line concentration (1.5·10^4 cells/mL for MCF7 and HeLa, 3·10^4 cells/mL for HT-29, and 1·10^4 cells/mL for SKOV-3, OVCAR-3, OVCAR-8, IGROV-1, and A-2780) in complete RPMI 1640 or DMEM medium at 37°C and 5% CO2 atmosphere. After 24 h incubation, to allow cells to attach to the plates, all compounds were added at 1 µM concentration and the effect on the proliferation was evaluated 72 h post-treatment. Compounds showing antiproliferative effects at tested concentration were selected for IC50 calculation (50% inhibitory concentration with respect to the untreated controls) from 10^−5 to 10^−10 M concentration. Non-linear curves fitting the experimental data were carried out for each compound. […]

[2] = system: HT-29 (colon adenocarcinoma); experiment: Antiproliferative activity against CA-4-resistant HT-29 with or without verapamil (sensitivity to MDR pumps, XTT); format: cell-based, human; settings: Homo sapiens, read-out: Antiproliferative Activity IC50 HT-29
Description: Detecting changes in drug potency when inhibiting MDR-mediated efflux reflect that these transporters reduce the intracellular drug concentration. HT-29 has been reported to express moderate levels of MDR1, accounting for a resistant phenotype. A comparison of the antiproliferative IC50 values of each MDS in the presence or absence of verapamil provides an estimate of the susceptibility of each compound to efflux pumps.
as §1
MCF7, HeLa, and HT-29 cell proliferation, when treated with the corresponding compounds, were determined using the XTT (sodium 3’-[1(phenylaminocarbonyl)-3,4-tetrazolium]-bis(4-methoxy-6-nitro)-benzenesulfonic acid hydrate) cell proliferation kit (Roche Molecular Biochemicals, Mannheim, Germany). A freshly prepared mixture of XTT labeling reagent with 0.02% (v/v) PMS (N-methyl-dibenzopyrazine methyl sulfate) electron coupling reagent was added to cells (50 µL/well in 96-well plates, total volume of 160 µL/well). Cells were incubated under standard culture conditions for 4 h (MCF7 and HeLa) or 6 h (HT-29). The absorbance of the formazan product generated was measured at 450 nm using a multi-well plate reader. SKOV-3, OVCAR-3, OVCAR-8, IGROV-1, A-2780 cell proliferation, when treated with the corresponding compound, were determined using MTT (3-(4,5-dimethylthiazol-2-yl)-2,5-diphenyl-2H-tetrazolium bromide) (Sigma-Aldrich, St. Louis, MO, USA). MTT in Phosphate Buffer Saline (PBS) (5 mg/ml) was added to cells (110 µL/well in 24-well plates, total volume of 1110 µL/well). After 1 hour of incubation, the medium was aspirated, and formazan violet crystals were dissolved in dimethyl sulfoxide (DMSO) (500 µL/well). Absorbance was measured at 570 nm in a plate reader (Ultra Evolution, Tecan, Männedorf, Suiza). To determine cell viability, cells in exponential growth phase were seeded (100 µL/well in 96-well plates and 1000 µL/well in 24-well plates) with appropriate cell line concentration (1.5·10^4 cells/mL for MCF7 and HeLa, 3·10^4 cells/mL for HT-29, and 1·10^4 cells/mL for SKOV-3, OVCAR-3, OVCAR-8, IGROV-1, and A-2780) in complete RPMI 1640 or DMEM medium at 37°C and 5% CO2 atmosphere. After 24 h incubation, to allow cells to attach to the plates, all compounds were added at 1 µM concentration and the effect on the proliferation was evaluated 72 h post-treatment. […] Non-linear curves fitting the experimental data were carried out for each compound. Compounds were dissolved in DMSO and the final solvent concentrations never exceeded 0.5% (v/v). The control wells included […] with 0.5% (v/v) DMSO and the positive control. 10 µM verapamil was included as a control for the HT-29 cell line.

[3] = Aqueous solubility, saturation shake-flask method, UV absorbance; settings: phosphate buffer, pH 7, aqueous buffer, thermodynamic from solid
Procedure: UV absorbance at three maximum absorbance wavelengths of selected compounds was measured after 48 h shaking and subsequent microfiltration.
The aqueous solubility of the sulfonamides was determined using an approach based on the saturation shake-flask method. Tested compounds (1–2 mg) were stirred in pH 7.0 phosphate buffer (300 µL) for 48 h at room temperature. The resulting suspension was filtered over a 45 µm filter to discard insoluble residues, and the concentration in the supernatant was measured by UV absorbance. To determine the concentration, a scan between 270 and 400 nm was performed in a Helios-α UV-320 Spectrophotometer (Thermo-Spectronic, Thermo Fischer Scientific, Waltham, MA, USA) for each tested compound. Then, three maximum wavelengths of absorbance per compound were selected from the previous scan and calibration curves were performed at these three wavelengths. Solubility results are given as the average of the three measurements.

[4] = HT-29, 72 h, XTT, without verapamil

IC50 [1] [nM] | IC50 [2, 4] [nM] | solubility at 48 h [3] [µg/mL] | Structure (SMILES) | IC50 ([2]; HT-29, 72 h) [nM]
> 1000 | > 1000 | 108 (≈ 206 µM) | COc1ccc(S(=O)(=O)N(c2cc(OC)c(OC)c(OC)c2)S(=O)(=O)c2ccc(OC)cc2)cc1 [Compound 1b] | –
275 | 230 | 33 (≈ 84.1 µM) | COc1ccc(S(=O)(=O)N(CC#N)c2cc(OC)c(OC)c(OC)c2)cc1 [Compound 6] | –
830 | > 1000 | – | COc1ccc(S(=O)(=O)N(Cc2ccccc2)c2cc(OC)c(OC)c(OC)c2)cc1 [Compound 9] | –
> 1000 | > 1000 | – | COc1ccc(S(=O)(=O)N(C(=O)OCc2ccccc2)c2cc(OC)c(OC)c(OC)c2)cc1 [Compound 10] | –
> 1000 | > 1000 | 88 (≈ 221 µM) | COc1ccc(S(=O)(=O)Nc2cc(OC)c(OC)c(OC)c2[N+](=O)[O-])cc1 [Compound 11] | –
> 1000 | > 1000 | 158 (≈ 429 µM) | COc1ccc(S(=O)(=O)Nc2cc(OC)c(OC)c(OC)c2N)cc1 [Compound 12] | –
> 1000 | > 1000 | – | COc1ccc(S(=O)(=O)N(C)c2cc(OC)c(OC)c(OC)c2N)cc1 [Compound 13] | –
> 1000 | > 1000 | – | COc1ccc(S(=O)(=O)Nc2cc(OC)c(OC)c(OC)c2NCN(c2cc(OC)c(OC)c(OC)c2N)S(=O)(=O)c2ccc(OC)cc2)cc1 [Compound 14] | –
> 1000 | > 1000 | 230 (≈ 560 µM) | COc1ccc(S(=O)(=O)Nc2cc(OC)c(OC)c(OC)c2NC(C)=O)cc1 [Compound 15] | –
> 1000 | > 1000 | – | COc1ccc(S(=O)(=O)Nc2cc(OC)c(OC)c(OC)c2NC=O)cc1 [Compound 17] | –
> 1000 | > 1000 | – | COc1ccc(S(=O)(=O)Nc2cc(OC)c(OC)c(OC)c2N(C)C)cc1 [Compound 18] | –
> 1000 | > 1000 | – | COc1ccc(S(=O)(=O)N(C)c2cc(OC)c(OC)c(OC)c2N(C)C)cc1 [Compound 19] | –
> 1000 | > 1000 | 87 (≈ 201 µM) | COc1ccc(S(=O)(=O)Nc2cc(OC)c(OC)c(OC)c2Br)cc1 [Compound 20] | –
> 1000 | > 1000 | 357 (≈ 679 µM) | COc1ccc(S(=O)(=O)Nc2cc(OC)c(OC)c(OC)c2NC(=O)CNC(=O)OC(C)(C)C)cc1 [Compound 21] | –
> 1000 | > 1000 | 41 (≈ 108 µM) | COc1ccc(S(=O)(=O)n2nnc3c(OC)c(OC)c(OC)cc32)cc1 [Compound 23] | –
> 1000 | > 1000 | – | COc1ccc(S(=O)(=O)n2cnc3c(OC)c(OC)c(OC)cc32)cc1 [Compound 24] | –
> 1000 | > 1000 | 25 (≈ 70.9 µM) | COc1cc(N(C)S(=O)(=O)c2ccc(N)cc2)cc(OC)c1OC [Compound 27] | –
173 | 887 | 15 (≈ 40.9 µM) | COc1cc(NS(=O)(=O)c2ccc(N(C)C)cc2)cc(OC)c1OC [Compound 28] | –
81 | 460 | 6 (≈ 15.2 µM) | CCN(c1cc(OC)c(OC)c(OC)c1)S(=O)(=O)c1ccc(N(C)C)cc1 [Compound 30] | –
135 | 140 | 18 (≈ 44.1 µM) | COc1cc(N(C(C)=O)S(=O)(=O)c2ccc(N(C)C)cc2)cc(OC)c1OC [Compound 31] | –
120 | 123 | 8 (≈ 19.7 µM) | COc1cc(N(CC#N)S(=O)(=O)c2ccc(N(C)C)cc2)cc(OC)c1OC [Compound 32] | –
91 | 863 | – | CCOC(=O)CN(c1cc(OC)c(OC)c(OC)c1)S(=O)(=O)c1ccc(N(C)C)cc1 [Compound 33] | –
100 | 165 | – | COc1cc(N(Cc2ccccc2)S(=O)(=O)c2ccc(N(C)C)cc2)cc(OC)c1OC [Compound 35a] | –
> 1000 | 690 | – | COc1cc(N(C(=O)OCc2ccccc2)S(=O)(=O)c2ccc(N(C)C)cc2)cc(OC)c1OC [Compound 35b] | –
> 1000 | > 1000 | 27 (≈ 73.7 µM) | COc1cc(NS(=O)(=O)c2ccc(NC=O)cc2)cc(OC)c1OC [Compound 36] | –
> 1000 | > 1000 | – | COc1ccc(S(=O)(=O)Nc2cc(OC)c(OC)c(OC)c2)cc1[N+](=O)[O-] [Compound 40] | –
48 | 113 | – | CCOC(=O)CNc1cc(S(=O)(=O)N(C)c2cc(OC)c(OC)c(OC)c2)ccc1OC [Compound 46] | –
> 1000 | > 1000 | – | CCOC(=O)CNc1cc(S(=O)(=O)N(CC(=O)OCC)c2cc(OC)c(OC)c(OC)c2)ccc1OC [Compound 47] | –
1190 | > 1000 | – | CNc1cc(S(=O)(=O)N(C)c2cc(OC)c(OC)c(OC)c2)ccc1OC [Compound 48a] | –

Structure (SMILES) | IC50 [1] [nM] | IC50 [2, 4] [nM] | solubility at 48 h [3] [µg/mL] | IC50 ([2]; HT-29, 72 h) [nM]
COc1ccc(/C=C\c2cc(OC)c(OC)c(OC)c2)cc1O [Combretastatin A-4, reference compound] | 1 | 305 | – | –
COc1ccc(S(=O)(=O)N(CCBr)c2cc(OC)c(OC)c(OC)c2)cc1 [Compound 4] | 340 | – | – | 503
COc1ccc(S(=O)(=O)N(C)c2cc(OC)c(OC)c(OC)c2)cc1N(C)C [Compound 48b] | > 1000 | – | – | > 1000
